Test results from patent US20210024985A1, “Devices and Methods Useful for Imaging Transient and Rare Mechanical Events in Cells” (Emory University, priority 2019, published 2021).
Read-outs that look alike come from different tables or passages of the source.

Assays:
[1] = test system: MTFM tension probes opened by naïve OT-1 T cells; test: Locking/unlocking of tension probes presenting antiCD3ε in live naïve OT-1 T cells; type: cell-based; settings: 200 nM unlocking strand
Experimental: The mechanically opened probes were locked with 200 nM locking strand over 10 min. After rinsing away excess locking strand, the unlocking strand was added at a final concentration of 200 nM, and the tension signal for the same cells was measured as a function of time.
To test locking/unlocking the oligonucleotide complexes in live cells, naïve OT-1 T cells were allowed to adhere and spread on MTFM probe surfaces presenting antiCD3ε antibodies. Cells generated tension signal as the TCR engaged the antibody and transmitted forces to the probes. Subsequently, the Atto647N-tagged locking strand was added for 10 min, washed, and the same T cells were imaged, confirming binding. […] Significant co-localization between the Cy3B (hairpin opening) and the Atto647N (locking strand) signals was found, as evident from linescan analysis and the Pearson's correlation coefficient of 0.72±0.096 (n=20 cells). The excess locking strand was rinsed away before re-imaging. “Erasing” the stored cellular mechanical information was tested. This process was triggered by adding 200 nM unlocking strand to the sample for 2-3 min and confirmed by imaging the same group of T cells. The unlocking process was rapid and reached completion within 60 s. Control experiments using tension probes with a scrambled stem-loop confirmed the specificity of locking real-time tension. […]

[2] = test system: MTFM hairpin tension probe (stem-loop DNA hairpin); test: Hybridization of locking strand to folded MTFM probe versus unstructured single stranded DNA on model surfaces; type: binding
Experimental: Fluorescence measurements of in-situ hybridization kinetics between the immobilized MTFM probes and the locking oligonucleotides at 200 nM. Locking oligonucleotides were added to surfaces presenting the MTFM tension probes at room temperature and allowed to bind to the hairpin for >1 h. Hybridization was monitored by the increase in fluorescence due to hairpin opening.
The selectivity of lock strand binding to unfolded hairpins over folded ones was measured by using model surfaces that either presented a folded MTFM probe or an unstructured single stranded DNA sequence. The unstructured sequence included a complementary region to the 17mer, thus providing a model for the opened state of the MTFM hairpin probes.
Conversely, mechanical stretching of DNA with large values of tension is expected to hinder hybridization. This is because forming the B-form duplex becomes less energetically favorable. Indeed, when F≈40 pN for a 24mer, this created a barrier to hybridization. […] Given that TCR forces are below 19 pN, estimates of mechano-selectivity are justified here.
Based on these criteria, five different locking oligonucleotides were designed that ranged in length from 25mer to 13mer to screen (FIG. 7A). Gold nanoparticle MTFM tension probe surfaces were prepared (FIG. 9). […] The locking oligonucleotides were tested. The 17mer has the most desirable properties (FIG. 7C). To estimate mechano-selectivity, the differential binding of locking strand to MTFM probe at rest to that of an unstructured sequence (mimicking opened state of MTFM probe) were compared.

[3] = test system: TCR; test: TCR tension imaging of naïve OT-1 cells in real-time and locked state (mechanical sampling and scanning); type: cell-based
Experimental: Mechano-locking enhances TCR-pMHC tension signals by accumulating pulling events that are >4.7 pN. The degree of enhancement and dynamics were evaluated. OT-1 T cells were allowed to engage real-time tension probes and then incubated with unlabeled locking strand (200 nM). The unlabeled locking strand was beneficial here because it eliminated bleed-through from the Atto647N tag. Additionally, avoiding the rinsing steps accelerates the experiments and reduces perturbation of cells.
A time course for TCR-N4 pMHC tension signal accumulation for three cells upon addition of the locking strand was imaged. […] Tension occupancy, which is the fraction of the cell contact area showing tension signal, reached 91% in 10 min. The tension occupancy is an indication of the area that is mechanically scanned by the TCR with F >4.7 pN in search for antigen.
T cells mechanically sample their cognate and near cognate ligands over time. […]
The signal accumulation levels differed when cells were presented with antibody, cognate pMHC, and altered peptide ligands. To quantify these differences on a per cell basis, two parameters were defined: the mechanical sampling factor, which is the fold enhancement in integrated tension signal; and the mechanical scanning factor, which reflects the fold increase in tension occupancy (FIG. 3B). […]

[4] = test system: TCR; settings: independent of CD8, cited from earlier work
[5] = target: OT-1 T-cell receptor (TCR) on OT-1 CD8+ T cells; test: cell-based or functional assay

In the case of “unlocking strand: strand (SEQ ID NO: 20) that triggers toehold-mediated strand displacement releasing the locking strand (DNA TAGGTAGGGTATAAAATGTTTTTTC; listed as DNA, chemistry not given here)”, the “time to completion of unlocking” value [1] is reported as no more than 60 s.

For “locking strand: 17mer locking oligonucleotide GAAAAAAACATTTATAC (SEQ ID NO: 6) that hybridizes to mechanically unfolded hairpin; 8 nt toehold at 3′ end for unlocking (listed as DNA, chemistry not fully specified)”, the “mechano-selectivity: differential binding to MTFM probe at rest vs unstructured sequence” value [2] was “greater than two orders of magnitude”, the “hybridization to the MTFM probes among locking oligonucleotides 13mer to 25mer” value ([2]; 200 nM, room temperature, >1 h) was “optimal hybridization” and the “hybridization to the closed hairpin tension probe, incubation without saturation” value ([2]; closed hairpin tension probe) was greater than 8 h. For the same molecule, the “difference in binding rates (lock binding selectivity between mechanically unfolded and folded probes)” value ([2]; pseudo first-order kinetics, one-phase association fit, unstructured sequence vs folded MTFM probe) was 487 fold and the “hybridization to the unstructured sequence, time to saturation” value ([2]; unstructured ssDNA with region complementary to the 17mer) was “saturated in seconds”.

In the case of “N4: antigenic pMHC, peptide SIINFEKL (SEQ ID NO: 22), OT-1 TCR antigen derived from chicken ovalbumin”, the “enhancement of the integrated tension signal per cell” value ([3]; 200 nM unlabeled locking strand, n=16 cells) is given as “approximately 189 fold”, the tension occupancy ([3]; in 10 min after locking strand, F >4.7 pN) is given as 91% and the average bond lifetime ([4]; at 10 pN) is given as 800 ms. The average bond lifetime ([4]; at zero force) was 100 ms.

Molecule SIINFEKL (peptide-MHC, part only; not given: MHC molecule, part only) [antigenic N4 pMHC (peptide SIINFEKL, SEQ ID NO: 22)] has an enhancement of the integrated N4 tension signal per cell after locking [5] of 189 fold, a force transmitted (hairpin probe threshold) [5] greater than 4.7 pN and a fraction of antigen mechanically scanned over initial contact area within 10 min migration (ICAM-1/pMHC N4 surface) [5] of 81%. It also gave a mechanical sampling factor [5] of 165 fold and a tension occupancy [5] of 91%.

With SIIQFEKL (peptide-MHC, part only; not given: MHC molecule, part only) [pMHC Q4 (SIIXFEKL, SEQ ID NO: 23, X=Q)] the mechanical sampling factor [5] was 66 fold.

SIIVFEKL (peptide-MHC, part only; not given: MHC molecule, part only) [pMHC V4 (SIIXFEKL, SEQ ID NO: 23, X=V)] gave a mechanical sampling factor [5] of 33 fold.

For SIIGFEKL (peptide-MHC, part only; not given: MHC molecule, part only) [mutant pMHC G4 (SIIGFEKL, SEQ ID NO: 24)], the mechanical sampling factor [5] was 10 fold.
